From US20160318933A1, “FUSED PYRAZOLE DERIVATIVE” (SUMITOMO DAINIPPON PHARMA CO., LTD., priority 2013, published 2016) come the findings set out here.

pEC50: −log10 of the molar value.

For the experiment, the target named is T1, human brain-derived dopamine D4 receptor (Homo sapiens, UniProt P21917).
T1 construct: expressed in transfected cells; host or cells: CHO (CHO-K1) or HEK293 cells
T1 sequence (P21917 1-419): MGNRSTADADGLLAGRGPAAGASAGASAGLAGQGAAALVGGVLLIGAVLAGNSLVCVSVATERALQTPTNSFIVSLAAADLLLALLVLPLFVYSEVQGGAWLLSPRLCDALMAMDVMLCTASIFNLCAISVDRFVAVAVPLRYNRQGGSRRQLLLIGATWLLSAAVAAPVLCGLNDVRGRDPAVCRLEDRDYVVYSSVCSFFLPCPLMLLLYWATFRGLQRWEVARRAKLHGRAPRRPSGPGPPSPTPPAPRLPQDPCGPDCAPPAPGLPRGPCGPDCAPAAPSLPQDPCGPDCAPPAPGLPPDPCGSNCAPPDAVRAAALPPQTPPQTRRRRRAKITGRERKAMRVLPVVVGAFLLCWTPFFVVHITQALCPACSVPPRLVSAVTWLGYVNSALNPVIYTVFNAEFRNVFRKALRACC
Briefly: Agonistic activity in G protein dependent pathway of dopamine D4 receptor (aequorin intracellular calcium luminescence, FDSS). The format is cell-based. The note with it: for pEC50: concentration required to achieve a 50% response of Emax, CHO-K1 or HEK293 cells transfected with D4 receptor; for Emax: read-out: Maximal activity on D4 receptor (%). An excerpt: The G protein dependent pathway is a pathway for transmitting signals in cells via a second messenger by stimulating a G protein through the binding of guanosine triphosphate (GTP) to the G protein. When GPCRs are activated by the binding of a ligand, a G protein binds to the GPCRs, and thereby GTP binds to a Gα subunit that is one of G protein subunits and a Gγβ subunit is dissociated. The activated Gα subunit regulates intracellular cAMP levels by the activation or inhibition of an adenylate cyclase, and regulates intracellular calcium levels by the activation of phospholipase C to transmit signals in cells.
The agonistic activities of the present compounds in the G protein dependent pathway were evaluated on the basis of intracellular calcium levels as follows. CHO-K1 or HEK293 cell lines transfected with D4 receptor genes were seeded in a 384-well plate, and incubated in a CO2 incubator at 37° C. for 24 hours, and then a solution of the present compound in DMSO was added into cells preloaded with coelenterazine to measure the change in luminescent signals with a FDSS (Hamamatsu Photonics K.K.). […] The agonistic activity of the present compound was calculated according to the measured luminescent signals, as the maximal activity (Emax) of the present compound. EC50 value was calculated as the concentration of the present compound required to achieve a 50% response of Emax.

As for `Cc1ccc(CN2CCn3nc(-c4ncccc4C)cc3C2)cc1` [Example 53], the pEC50 is 8.00 and the Emax was 99%.

As to `Cc1cccc(CN2CCn3nc(-c4ncccc4C)cc3C2)c1` [Example 54], the negative logarithm of the EC50 (pEC50) is 8.15 and the Emax is 80%.

Turning to `Cc1cccnc1-c1cc2n(n1)CCN(Cc1ccc(C(F)(F)F)cc1)C2` [Example 55], the pEC50 was 7.17 and the Emax turned out to be 92%.

In the case of `Cc1cccnc1-c1cc2n(n1)CCN(Cc1ccc(Cl)cc1)C2` [Example 56], the pEC50 was 7.92 and the Emax turned out to be 78%.

With `Cc1cccnc1-c1cc2n(n1)CCN(Cc1ccc(C#N)cc1)C2` [Example 57], the negative logarithm of the EC50 (pEC50) is 7.08 and the Emax came out at 77%.

`Cc1cccnc1-c1cc2n(n1)CCN(Cc1ccc(F)cc1)C2` [Example 58]: the pEC50 was 7.66 and the Emax worked out at 81%.

As for `Cc1cccnc1-c1cc2n(n1)CCN(Cc1cccc(Cl)c1)C2` [Example 59], the negative-log EC50 (pEC50) is 7.44 and the Emax stood at 58%.

With `Cc1cccnc1-c1cc2n(n1)CCN(Cc1cccc(C(F)(F)F)c1)C2` [Example 60], the pEC50 was 7.00 and the Emax is 59%.

Turning to `Cc1cccnc1-c1cc2n(n1)CCN(Cc1cccc(F)c1)C2` [Example 61], the pEC50 is 7.47 and the Emax stood at 57%.

As for `Cc1cccnc1-c1cc2n(n1)CCN(Cc1cccc(C#N)c1)C2` [Example 62], the pEC50 is 7.60 and the Emax was 89%.

Take `Cc1cccnc1-c1cc2n(n1)CCN(Cc1cccc(OC(F)(F)F)c1)C2` [Example 63]: the pEC50 was 6.99 and the Emax amounted to 40%.

For `Cc1cccnc1-c1cc2n(n1)CCN(Cc1cc(OC(F)(F)F)ccc1F)C2` [Example 64], the pEC50 was 6.97 and the Emax came out at 42%.

Take `Cc1cccnc1-c1cc2n(n1)CCN(Cc1ccc([N+](=O)[O-])cc1)C2` [Example 65]: the pEC50 is 7.70 and the Emax came out at 69%.

Consider `Cc1cccnc1-c1cc2n(n1)CCN(Cc1ccc(OC(F)(F)F)cc1F)C2` [Example 66], for which the pEC50 was 6.85 and the Emax came out at 52%.

In the case of `Cc1ccc(CN2CCn3nc(-c4ncccc4C)cc3C2)cn1` [Example 67], the negative-log EC50 (pEC50) is 7.57 and the Emax was found to be 64%.

Turning to `Fc1cccnc1-c1cc2n(n1)CCN(Cc1ccc(C(F)(F)F)cc1)C2` [Example 68], the pEC50 was 7.16 and the Emax was 64%.

As to `N#Cc1ccc(CN2CCn3nc(-c4ncccc4F)cc3C2)cc1` [Example 69], the pEC50 was 7.23 and the Emax was found to be 50%.

As for `Cc1cccnc1-c1cc2n(n1)CCN(Cc1ccc3c(c1)N(C)C(=O)CC3)C2` [Example 70], the pEC50 is 7.07 and the Emax stood at 45%.

Take `Cc1cccnc1-c1nn2c(c1C)CN(Cc1ccc(C(F)(F)F)cc1)CC2` [Example 71]: the pEC50 is 7.06 and the Emax worked out at 53%.

For the molecule `Cc1ccc(CN2CCn3nc(-c4ncccc4C)c(C)c3C2)cc1` [Example 72], the pEC50 is 7.48 and the Emax is 65%.

With `Cc1cccnc1-c1nn2c(c1C)CN(Cc1ccccc1)CC2` [Example 73], the pEC50 was 7.52 and the Emax stood at 58%.

In the case of `Cc1c(-c2ccccn2)nn2c1CN(Cc1ccc(C(F)(F)F)cc1)CC2` [Example 74], the negative-log EC50 (pEC50) is 7.14 and the Emax worked out at 65%.

For the molecule `Cc1c(-c2ccccn2)nn2c1CN(Cc1ccc(C#N)cc1)CC2` [Example 75], the pEC50 was 7.43 and the Emax came out at 61%.

As for `Cc1ccc(CN2CCn3nc(-c4ccccn4)c(C)c3C2)cc1` [Example 76], the pEC50 is 7.36 and the Emax was 59%.

Regarding `Cc1cccnc1-c1cc2n(n1)CCN(Cc1ccc3c(c1)N(C)C(=O)CS3)C2` [Example 77], the pEC50 is 7.24 and the Emax was 62%.

Take `Fc1c(-c2ccccn2)nn2c1CN(Cc1ccccc1)CC2` [Example 78]: the negative-log EC50 (pEC50) is 7.96 and the Emax is 51%.

As for `Fc1cccnc1-c1cc2n(n1)CCN(Cc1ccccc1)C2` [Example 79], the pEC50 was 8.47 and the Emax worked out at 83%.

For `Cc1cccnc1-c1cc2n(n1)CCN(Cc1ccc(C(F)F)cc1)C2` [Example 80], the negative logarithm of the EC50 (pEC50) was 7.74 and the Emax was 70%.

Regarding `Cc1c(-c2ccccn2)nn2c1CN(Cc1ccccc1)CC2` [Example 81], the pEC50 was 9.15 and the Emax was determined as 89%.

Regarding `Cc1ccc(CN2CCn3nc(-c4ncccc4F)c(C)c3C2)cc1` [Example 82], the pEC50 is 7.34 and the Emax worked out at 91%.

As to `Cc1c(-c2ncccc2F)nn2c1CN(Cc1ccc(C(F)(F)F)cc1)CC2` [Example 83], the negative-log EC50 (pEC50) is 7.08 and the Emax turned out to be 72%.

In the case of `Cc1cccnc1-c1cc2n(n1)CCN(Cc1cnc(C(F)(F)F)nc1N)C2` [Example 84, 5-{[2-(3-Methylpyridin-2-yl)-6,7-dihydropyrazolo[1,5-a]pyrazin-5(4H)-yl]methyl}-2-(trifluoromethyl)pyrimidine-4-amine], the pEC50 is 6.93 and the Emax worked out at 68%.

As for `Cc1cccnc1-c1cc2n(n1)CCN(Cc1nc(C)n3ccccc13)C2` [Example 85], the pEC50 is 7.11 and the Emax is 78%.

In the case of `Cc1cccnc1-c1cc2n(n1)CCN(Cc1ccc(C(F)(F)F)c(C#N)c1)C2` [Example 86], the pEC50 was 7.28 and the Emax was 85%.

Turning to `Cc1cccnc1-c1cc2n(n1)CCN(Cc1cn3c(n1)CCCC3)C2` [Example 87], the negative logarithm of the EC50 (pEC50) is 7.21 and the Emax was found to be 47%.

As to `Cc1cccnc1-c1cc2n(n1)CCN(Cc1cnn3c1CCCC3)C2` [Example 88], the pEC50 is 7.03 and the Emax is 54%.

Turning to `Cc1cccnc1-c1cc2n(n1)CCN(Cc1cnn3ccccc13)C2` [Example 89], the pEC50 is 7.33 and the Emax came to 39%.

Consider `Cc1cccnc1-c1cc2n(n1)CCN(Cc1cc3ccccn3n1)C2` [Example 90], for which the pEC50 is 7.54 and the Emax was 55%.

Consider `Cc1cccnc1-c1cc2n(n1)CCN(Cc1cc3n(n1)CCCC3)C2` [Example 91], for which the negative-log EC50 (pEC50) is 7.31 and the Emax was 44%.

Consider `Cc1c(-c2ccccn2)nn2c1CN(Cc1ccc(C(F)(F)F)nc1N)CC2` [Example 92], for which the pEC50 was 7.22 and the Emax amounted to 64%.

With `Cc1ccnc(CN2CCn3nc(-c4ccccn4)c(C)c3C2)c1` [Example 93], the negative-log EC50 (pEC50) was 7.64 and the Emax stood at 56%.

As for `Cc1c(-c2ccccn2)nn2c1CN(Cc1cn3c(n1)CCCC3)CC2` [Example 94], the pEC50 was 7.38 and the Emax amounted to 49%.

For the molecule `Cc1c(-c2ccccn2)nn2c1CN(Cc1ccc(C(F)(F)F)nc1)CC2` [Example 95], the negative logarithm of the EC50 (pEC50) is 7.29 and the Emax came out at 56%.

As for `Cc1cccnc1-c1cc2n(n1)CCN(Cc1ncn3ccccc13)C2` [Example 96], the negative logarithm of the EC50 (pEC50) is 7.43 and the Emax was found to be 57%.

`Cc1cccnc1-c1cc2n(n1)CCN(Cc1ccc(Cl)cn1)C2` [Example 97]: the negative logarithm of the EC50 (pEC50) is 7.31 and the Emax came out at 85%.

Consider `Cc1ccc(CN2CCn3nc(-c4ccccn4)cc3C2)nc1N` [Example 98], for which the pEC50 is 7.70 and the Emax stood at 54%.

As to `Cc1ccc(CN2CCn3nc(-c4ncccc4C)cc3C2)cc1C#N` [Example 99], the pEC50 is 8.96 and the Emax is 77%.

As to `Cc1cccnc1-c1cc2n(n1)CCN(Cc1n[nH]c3cc(F)ccc13)C2` [Example 100], the negative-log EC50 (pEC50) was 7.70 and the Emax came to 79%.

For the molecule `Cc1ccc2c(CN3CCn4nc(-c5ncccc5C)cc4C3)n[nH]c2c1` [Example 101], the pEC50 was 7.11 and the Emax was 67%.

Regarding `Fc1cccc2[nH]nc(CN3CCn4nc(-c5ccccn5)cc4C3)c12` [Example 102], the pEC50 was 6.94 and the Emax turned out to be 48%.

Regarding `Cc1cnc(N)c(CN2CCn3nc(-c4ncccc4C)cc3C2)c1` [Example 103], the pEC50 is 6.90 and the Emax is 53%.

For `Cc1cccnc1-c1cc2n(n1)CCN(Cc1n[nH]c3c(C)cccc13)C2` [Example 104], the pEC50 was 7.74 and the Emax is 67%.
